How the values were obtained:
[1] = target: Serine/threonine-protein kinase DCLK2 (Homo sapiens) (UniProt Q8N568); test: Inhibition of T7 bacteriophage fused human DCAMKL2 at 10 uM by KINOMEscan analysis relative to control
[2] = target: Serine/threonine-protein kinase PAK 6 (Homo sapiens) (UniProt Q9NQU5); test: Inhibition of T7 bacteriophage fused human PAK6 at 10 uM by KINOMEscan analysis relative to control
[3] = target: Aurora kinase B (Homo sapiens) (UniProt Q96GD4); test: Inhibition of T7 bacteriophage fused human AURKB at 10 uM by KINOMEscan analysis relative to control
[4] = target: Tyrosine-protein kinase ABL1 (Homo sapiens) (UniProt P00519); test: Inhibition of T7 bacteriophage fused human phosphorylated ABL1 at 10 uM by KINOMEscan analysis relative to control
[5] = target: Calcium/calmodulin-dependent protein kinase kinase 1 (Homo sapiens) (UniProt Q8N5S9); test: Inhibition of T7 bacteriophage fused human CAMKK1 at 10 uM by KINOMEscan analysis relative to control
[6] = target: Serine/threonine-protein kinase PAK 4 (Homo sapiens) (UniProt O96013); test: Inhibition of T7 bacteriophage fused human PAK4 at 10 uM by KINOMEscan analysis relative to control
[7] = system: Proto-oncogene tyrosine-protein kinase receptor Ret (Homo sapiens), P07949 [M918T]; test: Inhibition of T7 bacteriophage fused human RET M918T mutant at 10 uM by KINOMEscan analysis relative to control
[8] = target: Serine/threonine-protein kinase RIO3 (Homo sapiens) (UniProt O14730); test: Inhibition of T7 bacteriophage fused human RIOK3 at 10 uM by KINOMEscan analysis relative to control
[9] = target: Casein kinase II subunit alpha' (Homo sapiens) (UniProt P19784); test: Inhibition of T7 bacteriophage fused human CSNK2A2 at 10 uM by KINOMEscan analysis relative to control; values are per cent of control
[10] = target: Casein kinase I isoform alpha (Homo sapiens) (UniProt P48729); test: Inhibition of T7 bacteriophage fused human CSNK1A1 at 10 uM by KINOMEscan analysis relative to control
[11] = target: Mitogen-activated protein kinase kinase kinase kinase 4 (Homo sapiens) (UniProt O95819); test: Inhibition of T7 bacteriophage fused human MAP4K4 at 10 uM by KINOMEscan analysis relative to control; values are per cent of control
[12] = target: Death-associated protein kinase 3 (Homo sapiens) (UniProt O43293); test: Inhibition of T7 bacteriophage fused human DAPK3 at 10 uM by KINOMEscan analysis relative to control; values are per cent of control
[13] = target: Serine/threonine-protein kinase PAK 2 (Homo sapiens) (UniProt Q13177); test: Inhibition of T7 bacteriophage fused human PAK2 at 10 uM by KINOMEscan analysis relative to control
[14] = target: Calcium/calmodulin-dependent protein kinase kinase 2 (Homo sapiens) (UniProt Q96RR4); test: Inhibition of T7 bacteriophage fused human CAMKK2 at 10 uM by KINOMEscan analysis relative to control
[15] = target: Serine/threonine-protein kinase 36 (Homo sapiens) (UniProt Q9NRP7); test: Inhibition of T7 bacteriophage fused human STK36 at 10 uM by KINOMEscan analysis relative to control
[16] = target: Serine/threonine-protein kinase RIO1 (Homo sapiens) (UniProt Q9BRS2); test: Inhibition of T7 bacteriophage fused human RIOK1 at 10 uM by KINOMEscan analysis relative to control
[17] = target: Mitogen-activated protein kinase kinase kinase 4 (Homo sapiens) (UniProt Q9Y6R4); test: Inhibition of T7 bacteriophage fused human MAP3K4 at 10 uM by KINOMEscan analysis relative to control
[18] = target: Hepatocyte growth factor receptor (Homo sapiens) (UniProt P08581); test: Inhibition of T7 bacteriophage fused human MET at 10 uM by KINOMEscan analysis relative to control
[19] = target: LIM domain kinase 1 (Homo sapiens) (UniProt P53667); test: Inhibition of T7 bacteriophage fused human LIMK1 at 10 uM by KINOMEscan analysis relative to control; values are per cent of control
[20] = system: Epidermal growth factor receptor (Homo sapiens), P00533 [UNDEFINED MUTATION]; test: Inhibition of T7 bacteriophage fused human EGFR L747/S752del/P753S mutant at 10 uM by KINOMEscan analysis relative to control; values are per cent of control
[21] = target: Cyclin-dependent kinase 17 (Homo sapiens) (UniProt Q00537); test: Inhibition of T7 bacteriophage fused human PCTK2 at 10 uM by KINOMEscan analysis relative to control
[22] = target: Ribosomal protein S6 kinase alpha-1 (Homo sapiens) (UniProt Q15418); test: Inhibition of T7 bacteriophage fused human N-terminal RSK1 Kinase domain-1 at 10 uM by KINOMEscan analysis relative to control
[23] = system: Epidermal growth factor receptor (Homo sapiens), P00533 [UNDEFINED MUTATION]; test: Inhibition of T7 bacteriophage fused human EGFR L747/E749del/A750P mutant at 10 uM by KINOMEscan analysis relative to control; values are per cent of control
[24] = target: Membrane-associated tyrosine- and threonine-specific cdc2-inhibitory kinase (Homo sapiens) (UniProt Q99640); test: Inhibition of T7 bacteriophage fused human PKMYT1 at 10 uM by KINOMEscan analysis relative to control
[25] = system: Tyrosine-protein kinase ABL1 (Homo sapiens), P00519 [M351T]; test: Inhibition of T7 bacteriophage fused human phosphorylated ABL1 M351T mutant at 10 uM by KINOMEscan analysis relative to control
[26] = target: Ribosomal protein S6 kinase alpha-4 (Homo sapiens) (UniProt O75676); test: Inhibition of T7 bacteriophage fused human N-terminal RPS6KA4 Kinase domain-1 at 10 uM by KINOMEscan analysis relative to control
[27] = target: Serine/threonine-protein kinase N1 (Homo sapiens) (UniProt Q16512); test: Inhibition of T7 bacteriophage fused human PKN1 at 10 uM by KINOMEscan analysis relative to control
[28] = target: Cyclin-dependent kinase 15 (Homo sapiens) (UniProt Q96Q40); test: Inhibition of T7 bacteriophage fused human PFTAIRE2 at 10 uM by KINOMEscan analysis relative to control
[29] = system: Proto-oncogene tyrosine-protein kinase receptor Ret (Homo sapiens), P07949 [V804L]; test: Inhibition of T7 bacteriophage fused human RET V804L mutant at 10 uM by KINOMEscan analysis relative to control
[30] = target: Receptor-type tyrosine-protein kinase FLT3 (Homo sapiens) (UniProt P36888); test: Inhibition of T7 bacteriophage fused human FLT3 at 10 uM by KINOMEscan analysis relative to control

Sequence of Epidermal growth factor receptor (Homo sapiens), P00533 [UNDEFINED MUTATION] (P00533 whole entry, looked up, stated change not applied, the tested form may be a part): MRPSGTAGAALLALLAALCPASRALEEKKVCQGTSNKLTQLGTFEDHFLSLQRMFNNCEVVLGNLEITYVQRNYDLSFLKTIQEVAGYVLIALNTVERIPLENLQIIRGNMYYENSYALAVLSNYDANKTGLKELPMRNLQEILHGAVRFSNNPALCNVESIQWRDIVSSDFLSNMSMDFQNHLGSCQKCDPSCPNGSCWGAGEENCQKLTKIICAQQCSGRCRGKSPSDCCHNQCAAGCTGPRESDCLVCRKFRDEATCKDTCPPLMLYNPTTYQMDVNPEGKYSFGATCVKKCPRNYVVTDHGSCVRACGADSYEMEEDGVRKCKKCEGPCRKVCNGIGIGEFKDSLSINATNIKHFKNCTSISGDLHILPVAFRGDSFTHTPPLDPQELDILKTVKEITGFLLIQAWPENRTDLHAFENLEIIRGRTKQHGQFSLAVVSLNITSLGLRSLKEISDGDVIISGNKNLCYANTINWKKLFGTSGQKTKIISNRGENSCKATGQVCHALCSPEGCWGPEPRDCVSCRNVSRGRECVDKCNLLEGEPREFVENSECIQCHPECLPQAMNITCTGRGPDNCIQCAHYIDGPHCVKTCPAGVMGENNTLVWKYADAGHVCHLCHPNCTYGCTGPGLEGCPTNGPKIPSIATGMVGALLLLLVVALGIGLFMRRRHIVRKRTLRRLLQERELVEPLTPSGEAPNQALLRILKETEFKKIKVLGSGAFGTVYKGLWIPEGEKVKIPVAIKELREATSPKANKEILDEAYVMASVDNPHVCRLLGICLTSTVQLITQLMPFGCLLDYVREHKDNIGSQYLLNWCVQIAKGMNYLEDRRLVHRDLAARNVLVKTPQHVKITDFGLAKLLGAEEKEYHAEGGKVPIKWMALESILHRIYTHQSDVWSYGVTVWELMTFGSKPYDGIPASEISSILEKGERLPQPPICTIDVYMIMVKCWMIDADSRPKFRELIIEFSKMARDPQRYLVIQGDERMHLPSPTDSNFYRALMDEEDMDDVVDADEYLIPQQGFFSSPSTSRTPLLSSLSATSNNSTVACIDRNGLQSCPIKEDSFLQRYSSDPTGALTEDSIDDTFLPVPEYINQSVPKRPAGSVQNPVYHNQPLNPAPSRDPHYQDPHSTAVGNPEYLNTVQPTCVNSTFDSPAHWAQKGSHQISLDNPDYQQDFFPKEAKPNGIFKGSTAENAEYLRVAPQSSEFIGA
Sequence of Serine/threonine-protein kinase N1 (Homo sapiens) (Q16512 2-942 limits assumed): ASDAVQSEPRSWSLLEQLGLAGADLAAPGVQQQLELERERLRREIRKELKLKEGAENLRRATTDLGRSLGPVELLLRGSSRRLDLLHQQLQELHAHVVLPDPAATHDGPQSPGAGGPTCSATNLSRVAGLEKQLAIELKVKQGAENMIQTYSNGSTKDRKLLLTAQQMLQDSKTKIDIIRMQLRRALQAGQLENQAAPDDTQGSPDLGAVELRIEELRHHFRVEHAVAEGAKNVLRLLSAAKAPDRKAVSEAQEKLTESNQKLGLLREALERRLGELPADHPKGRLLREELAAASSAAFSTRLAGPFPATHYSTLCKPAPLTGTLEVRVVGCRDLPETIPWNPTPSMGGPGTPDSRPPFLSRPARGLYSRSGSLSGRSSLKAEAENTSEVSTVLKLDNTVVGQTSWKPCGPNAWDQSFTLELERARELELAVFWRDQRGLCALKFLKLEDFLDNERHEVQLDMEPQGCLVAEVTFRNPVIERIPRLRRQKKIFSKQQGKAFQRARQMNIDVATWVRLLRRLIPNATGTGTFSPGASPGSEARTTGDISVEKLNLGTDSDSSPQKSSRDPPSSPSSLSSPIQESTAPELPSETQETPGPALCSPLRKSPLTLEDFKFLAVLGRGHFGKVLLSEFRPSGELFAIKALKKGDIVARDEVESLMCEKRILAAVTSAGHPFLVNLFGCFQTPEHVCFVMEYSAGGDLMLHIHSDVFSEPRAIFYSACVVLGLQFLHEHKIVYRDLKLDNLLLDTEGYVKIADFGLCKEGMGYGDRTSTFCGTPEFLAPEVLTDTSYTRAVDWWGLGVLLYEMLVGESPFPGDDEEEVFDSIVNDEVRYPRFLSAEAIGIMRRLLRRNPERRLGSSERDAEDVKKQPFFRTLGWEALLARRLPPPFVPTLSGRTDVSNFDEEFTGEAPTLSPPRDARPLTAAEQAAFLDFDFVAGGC
Sequence of Mitogen-activated protein kinase kinase kinase kinase 4 (Homo sapiens) (O95819 2-1239 limits assumed): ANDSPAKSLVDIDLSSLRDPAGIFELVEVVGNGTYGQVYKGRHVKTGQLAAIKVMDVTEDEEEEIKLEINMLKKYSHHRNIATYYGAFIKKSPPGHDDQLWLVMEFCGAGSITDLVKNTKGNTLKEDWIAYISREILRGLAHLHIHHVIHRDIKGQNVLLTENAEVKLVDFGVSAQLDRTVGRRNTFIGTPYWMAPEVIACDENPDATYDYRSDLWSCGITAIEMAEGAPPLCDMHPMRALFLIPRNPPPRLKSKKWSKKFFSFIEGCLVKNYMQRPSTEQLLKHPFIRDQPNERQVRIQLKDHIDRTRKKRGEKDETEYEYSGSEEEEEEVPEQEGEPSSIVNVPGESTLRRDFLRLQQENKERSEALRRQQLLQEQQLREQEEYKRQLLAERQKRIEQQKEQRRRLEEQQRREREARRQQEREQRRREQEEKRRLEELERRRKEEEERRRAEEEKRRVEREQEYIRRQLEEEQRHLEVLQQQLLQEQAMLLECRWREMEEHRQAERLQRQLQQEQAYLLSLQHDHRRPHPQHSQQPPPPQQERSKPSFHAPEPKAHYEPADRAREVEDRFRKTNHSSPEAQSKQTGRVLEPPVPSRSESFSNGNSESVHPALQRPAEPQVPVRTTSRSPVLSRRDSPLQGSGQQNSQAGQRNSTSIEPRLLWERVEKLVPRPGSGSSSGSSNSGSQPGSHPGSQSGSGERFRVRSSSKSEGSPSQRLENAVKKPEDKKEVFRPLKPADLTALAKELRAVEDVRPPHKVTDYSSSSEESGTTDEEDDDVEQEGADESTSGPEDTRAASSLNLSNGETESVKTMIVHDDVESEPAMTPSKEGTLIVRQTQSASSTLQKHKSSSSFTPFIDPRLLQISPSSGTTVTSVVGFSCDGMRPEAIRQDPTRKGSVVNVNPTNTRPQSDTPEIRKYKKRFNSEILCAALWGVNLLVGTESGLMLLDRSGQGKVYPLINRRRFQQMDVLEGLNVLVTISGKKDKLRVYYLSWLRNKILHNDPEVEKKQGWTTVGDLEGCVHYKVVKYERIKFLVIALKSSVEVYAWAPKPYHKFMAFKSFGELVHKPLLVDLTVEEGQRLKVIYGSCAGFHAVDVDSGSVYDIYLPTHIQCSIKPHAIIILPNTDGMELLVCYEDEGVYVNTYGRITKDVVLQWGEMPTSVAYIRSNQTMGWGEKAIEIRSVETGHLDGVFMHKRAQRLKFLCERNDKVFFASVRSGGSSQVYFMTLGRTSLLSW
Sequence of Calcium/calmodulin-dependent protein kinase kinase 2 (Homo sapiens) (Q96RR4 2-588 limits assumed): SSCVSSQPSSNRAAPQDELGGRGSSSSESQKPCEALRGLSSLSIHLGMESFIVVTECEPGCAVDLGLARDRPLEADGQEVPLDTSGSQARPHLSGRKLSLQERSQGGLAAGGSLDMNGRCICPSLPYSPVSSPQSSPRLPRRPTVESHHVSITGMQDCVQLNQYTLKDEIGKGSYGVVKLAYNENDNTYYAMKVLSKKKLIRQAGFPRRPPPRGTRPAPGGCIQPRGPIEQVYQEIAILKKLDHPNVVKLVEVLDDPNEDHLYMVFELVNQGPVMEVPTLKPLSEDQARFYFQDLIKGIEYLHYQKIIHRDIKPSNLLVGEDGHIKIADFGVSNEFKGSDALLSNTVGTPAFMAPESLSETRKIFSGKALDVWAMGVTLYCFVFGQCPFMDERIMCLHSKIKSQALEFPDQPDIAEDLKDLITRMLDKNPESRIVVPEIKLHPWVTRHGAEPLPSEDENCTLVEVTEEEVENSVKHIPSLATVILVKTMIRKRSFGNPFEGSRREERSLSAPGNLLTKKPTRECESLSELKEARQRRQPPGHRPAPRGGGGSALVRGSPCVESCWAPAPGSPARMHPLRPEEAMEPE
Sequence of Calcium/calmodulin-dependent protein kinase kinase 1 (Homo sapiens) (Q8N5S9 whole entry, looked up, the tested form may be a part): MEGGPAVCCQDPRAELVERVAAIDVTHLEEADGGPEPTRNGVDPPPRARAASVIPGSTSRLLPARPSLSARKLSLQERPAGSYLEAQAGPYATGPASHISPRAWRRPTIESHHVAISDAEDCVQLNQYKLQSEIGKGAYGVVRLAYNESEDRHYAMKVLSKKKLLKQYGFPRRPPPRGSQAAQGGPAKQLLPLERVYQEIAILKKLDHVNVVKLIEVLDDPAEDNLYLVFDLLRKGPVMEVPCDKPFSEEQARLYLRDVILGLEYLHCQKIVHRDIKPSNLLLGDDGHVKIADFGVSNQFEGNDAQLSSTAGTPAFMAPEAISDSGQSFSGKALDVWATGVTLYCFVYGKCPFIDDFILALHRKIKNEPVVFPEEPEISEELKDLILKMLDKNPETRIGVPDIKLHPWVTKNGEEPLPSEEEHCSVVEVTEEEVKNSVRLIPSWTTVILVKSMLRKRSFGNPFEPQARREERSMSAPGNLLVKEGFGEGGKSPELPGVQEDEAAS
Sequence of Casein kinase II subunit alpha' (Homo sapiens) (P19784 whole entry, looked up, the tested form may be a part, canonical isoform): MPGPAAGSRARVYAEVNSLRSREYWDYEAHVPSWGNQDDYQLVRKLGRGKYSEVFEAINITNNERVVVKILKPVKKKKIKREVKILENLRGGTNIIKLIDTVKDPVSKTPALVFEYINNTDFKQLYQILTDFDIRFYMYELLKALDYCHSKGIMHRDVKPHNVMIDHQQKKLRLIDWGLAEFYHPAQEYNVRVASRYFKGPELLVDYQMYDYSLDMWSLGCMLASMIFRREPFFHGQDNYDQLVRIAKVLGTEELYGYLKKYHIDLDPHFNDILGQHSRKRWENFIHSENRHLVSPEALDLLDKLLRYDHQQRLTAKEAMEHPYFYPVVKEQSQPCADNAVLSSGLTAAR

COc1cc(N2CCC(N3CCN(C)CC3)CC2)ccc1Nc1ncc2c(n1)N(C)c1ccccc1C(=O)N2C
inhibition [1]: 0.45% | inhibition [2]: 98% | inhibition [3]: 38% | inhibition [4]: 82% | inhibition [5]: 73% | inhibition [6]: 94% | inhibition [7]: 100% | inhibition [8]: 85% | residual activity [9]: 93% | inhibition [10]: 100% | residual activity [11]: 85% | residual activity [12]: 67% | inhibition [13]: 65% | inhibition [14]: 31% | inhibition [15]: 97% | inhibition [16]: 100% | inhibition [17]: 100% | inhibition [18]: 100% | residual activity [19]: 95% | residual activity [20]: 84% | inhibition [21]: 83% | inhibition [22]: 73% | residual activity [23]: 78% | inhibition [24]: 80% | inhibition [25]: 94% | inhibition [26]: 100% | inhibition [27]: 100% | inhibition [28]: 100% | inhibition [29]: 89% | inhibition [30]: 100%
